ChEMBL document CHEMBL1777760, “Inhibition studies with anions and small molecules of two novel β-carbonic anhydrases from the bacterial pathogen Salmonella enterica serovar Typhimurium” (Bioorg Med Chem Lett, 2011)

Target: Carbonic anhydrase 1 (Homo sapiens, UniProt P00915)
Sequence (P00915 whole entry): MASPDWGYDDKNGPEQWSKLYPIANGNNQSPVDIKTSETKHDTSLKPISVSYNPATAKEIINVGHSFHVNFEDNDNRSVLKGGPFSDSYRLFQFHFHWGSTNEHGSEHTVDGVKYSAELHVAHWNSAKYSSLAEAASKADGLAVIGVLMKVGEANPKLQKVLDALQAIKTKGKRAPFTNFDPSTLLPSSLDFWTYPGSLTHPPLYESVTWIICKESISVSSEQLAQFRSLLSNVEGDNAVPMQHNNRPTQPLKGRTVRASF

Q: With `F[B-](F)(F)F.[Na+]` [SODIUM TETRAFLUOROBORATE] as the molecule, how does the Ki read?
A: The Ki was over 200000 µM.

Q: With `NS(=O)(=O)O` [SODIUM SULFIMIDATE] as the molecule, how does the Ki read?
A: Its Ki is 310 µM.

Q: With `CCN(CC)C(=S)S` [DITIOCARB SODIUM] as the molecule, how does the Ki read?
A: The Ki was 790 µM.
